This passage reports IC50 results from patent US9206198B2, “Inhibitors of the renal outer medullary potassium channel” (Merck Sharp & Dohme Corp., priority 2012, dated 2015).

For one assay, the target named is hROMK (hKir1.1) (Homo sapiens (Human), UniProt P48048). Briefly: Thallium Flux Assay (ROMK channel functional thallium flux assay, FLIPR-Tetra). Conditions: HEK293 cells stably expressing hROMK. It is filed as cell-based. On the procedure: Cell Culture Conditions— HEK293 cells stably expressing hROMK (hKir1.1) were grown at 37° C. in a 10% CO2 humidified incubator in complete growth media: Dulbecco's Modified Eagle Medium supplemented with non-essential amino acids, Penicillin/Streptomycin/Glutamine, G418 and FBS. At >80% confluency, aspirate the media from the flask and rinse with 10 mL Calcium/Magnesium-free PBS. Add 5 mL of 1× trypsin (prepared in Ca/Mg Free PBS) to T-225 flask and return flask to 37° C./CO2 incubator for 2-3 minutes. To dislodge the cell, gently bang the side of the flask with your hand. Triturate the cells completely and then transfer the cells to 25 mL complete media. Centrifuge at 1,500 rpm for 6 min followed by resuspension in complete growth media and determine cell concentration. For typical re-seeding, 4E6 cells/T-225 flask will attain >80% confluency in 4 days. Under ideal growth conditions and appropriate tissue culture practices, this cell line is stable for 40-45 passages.
FluxOR Kit Components (Invitrogen F10017)
• FluxOR™ Reagent (Component A) • FluxOR™ Assay Buffer (Component B)—10× Concentrate • PowerLoad™ Concentrate (Component C)—100× Concentrate • Probenecid (Component D)—Lyophilized sample is kept at −20° C. Water soluble, 100×after solubilization in 1 mL water. Store at 4° C. • FluxOR™ Chloride-free Buffer (Component E)—5× Concentrate • Potassium sulfate (K2SO4) Concentrate (Component F)—125 mM in water. Store at 4° C. • Thallium sulfate (Tl2SO4) Concentrate (Component G)—50 mM in water. Store at 4° C. • DMSO (dimethyl sulfoxide, Component H)—1 mL (100%) Reagent Preparation: FluxOR Working Solutions • 1000× FluxOR™ Reagent: Reconstitute a vial of component A in 100 μl DMSO; Mix well; Store 10 μl aliquots at −20° C. • 1× FluxOR™ Assay Buffer: Dilute Component B 10-fold with water; Adjust pH to 7.4 with Hepes/NaOH; Filter and store at 4° C. • Probenecid/Assay Buffer: 100 mL of 1× FluxOR™ Assay Buffer; 1 mL of reconstituted component D; Store at 4° C. • Loading Buffer (per microplate): 10 μl 1000× FluxOR™ Reagent; 100 μl component C; 10 mL Probenecid/Assay Buffer • Compound Buffer (per microplate): 20 mL Probenecid/Assay Buffer; 0.3 mM ouabain (10 mM ouabain in water can be stored in amber bottle/aluminum foil at room temperature); Test compound • 1× FluxOR™ Chloride-Free Buffer: Prepare 1× working solution in water. Can be stored at room temperature • Stimulant Buffer (prepared at 5× final concentration in 1× FluxOR™ Chloride-Free Buffer): 7.5 mM Thallium sulfate and 0.75 mM Potassium sulfate (to give a final assay concentration of 3 mM Thallium 0.3 mM Potassium). Store at 4° C. when not in use. If kept sterile, this solution is good for months.
Assay Protocol—The ROMK channel functional thallium flux assay is performed in 384 wells, using the FLIPR-Tetra instrument. HEK-hKir1.1 cells are seeded in Poly-D-Lysine microplates and kept in a 37° C.-10% CO2 incubator overnight. On the day of the experiment, the growth media is replaced with the FluxOR™ reagent loading buffer and incubated, protected from light, at ambient temperature (23-25° C.) for 90 min. The loading buffer is replaced with assay buffer±test compound followed by 30 min incubation at ambient temperature, where the Thallium/Potassium stimulant is added to the microplate.
• 1. Seed HEK-hKir1.1 cells ([…] at 20,000 cells/well) in 384-well PDL coated Microplates • 2. Allow cells to adhere overnight in humidified 37° C./10% CO2 incubator • 3. Completely remove cell growth media from microplate and replace with 25 μl loading buffer • 4. Incubate Microplate at room temperature, protected form light, for 90 min • 5. Remove loading buffer and replace with 25 μl 1× Assay Buffer±test compound. • 6. Incubate microplate at room temperature, protected from light, for 30 min • 7. At FLIPR-Tetra 384: Add stimulant (Thallium/Potassium) solution to microplate and monitor fluorescence. Excitation=400 nm, Emission=460 & 580 nm. Collect data for 10 min.

Another assay addresses Kir1.1 (ROMK1) (Homo sapiens (Human), UniProt P48048). Nature of the assay: Electrophysiology Assay (whole cell voltage clamp, IonWorks Quattro). It is filed as cell-based. The following applies: Chinese hamster ovary cells stably expressing Kir1.1; block during voltage step to 0 mV. How it is done: Block of Kir1.1 (ROMK1) currents was examined by whole cell voltage clamp (Hamill et. al. Pfluegers Archives 391:85-100 (1981)) using the IonWorks Quattro automated electrophysiology platform (Molecular Devices, Sunnyvale, Calif.). Chinese hamster ovary cells stably expressing Kir1.1 channels were maintained in T-75 flasks in cell culture media in a humidified 10% CO2 incubator at 37° C. Prior to an experiment, Kir1.1 expression was induced by overnight incubation with 1 mM sodium butyrate. On the day of the experiment, cells were dissociated with 2.5 mL of Versene (Invitrogen 15040-066) for approximately 6 min at 37° C. and suspended in 10 mL of bath solution containing (in mM): 150 NaCl, 10 KCl, 2.7 CaCl2, 0.5 MgCl2, 5 HEPES, pH 7.4. After centrifugation, the cell pellet was resuspended in approximately 4.0 mL of bath solution and placed in the IonWorks instrument. The intracellular solution consisted of (in mM): 80 K gluconate, 40 KCl, 20 KF, 3.2 MgCl2, 3 EGTA, 5 Hepes, pH 7.4. Electrical access to the cytoplasm was achieved by perforation in 0.13 mg/mL amphotericin B for 4 min. Amphotericin B (Sigma A-4888) was prepared as a 40 mg/mL solution in DMSO. Voltage protocols and current recordings were performed using the IonWorks HT software/hardware system. Currents were sampled at 1 kHz. No correction for liquid junction potentials was used. The test pulse, consisting of a 100 ms step to 0 mV from a holding potential of −70 mV, followed by a 100 ms voltage ramp from −70 mV to +70 mV, was applied before and after a 6 min compound incubation period. Test compounds were prepared by diluting DMSO stock solutions into the bath solution at 3× the final concentration and placed in the instrument in 96-well polypropylene plates. Current amplitudes were measured using the IonWorks software. To assess compound potency, the fractional block during the voltage step to 0 mV was calculated in Microsoft Excel (Microsoft, Redmond, Calif.), and dose-response curves were fitted with Igor Pro 4.0 (WaveMetrics, Lake Oswego, Oreg.). Normally, a control compound is included to support that the assay is giving consistent results compared to previous measurements, although the control is not required to obtain the results for the test compounds.

In general, IC50 refers to the concentration at which inhibition is half-maximal. A higher IC50 goes with a need for much substance.

The structures appear in SMILES notation.

Sequence of Kir1.1 (ROMK1) (P48048 whole entry, species assumed): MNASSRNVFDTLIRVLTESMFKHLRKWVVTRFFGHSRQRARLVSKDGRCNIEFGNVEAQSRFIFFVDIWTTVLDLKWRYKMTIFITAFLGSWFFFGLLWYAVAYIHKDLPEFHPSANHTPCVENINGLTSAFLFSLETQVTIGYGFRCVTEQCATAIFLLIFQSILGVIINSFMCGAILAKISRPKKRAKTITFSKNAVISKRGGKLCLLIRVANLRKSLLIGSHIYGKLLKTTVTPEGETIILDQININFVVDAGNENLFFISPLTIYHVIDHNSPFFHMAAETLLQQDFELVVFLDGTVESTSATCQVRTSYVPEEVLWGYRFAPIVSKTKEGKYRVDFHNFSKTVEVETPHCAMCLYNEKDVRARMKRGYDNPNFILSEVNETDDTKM
Sequence of hROMK (hKir1.1) (P48048 whole entry): as the sequence (P48048 whole entry, species assumed) above

As for `Cc1c([C@H](O)CN2CCC3(CC2)CCN(C2=CC(=O)OC2)C3=O)ccc2c1COC2=O` [Example 21], the IC50 against hROMK (hKir1.1) amounted to 370 nM; on Kir1.1 (ROMK1) it was 390 nM.
Regarding `Cc1c([C@@H](O)CN2CCC3(CC2)CCN(C2=C(F)C(=O)OC2)C3=O)ccc2c1COC2=O` [Example 22], the figures for the IC50 against hROMK (hKir1.1) and on Kir1.1 (ROMK1) were 30 nM and 4 nM, respectively.
In the same order, the values of `Cc1c([C@@H](O)CN2CCC3(CCCN(C4=CC(=O)OC4)C3=O)CC2)ccc2c1COC2=O` [Example 23] are 20 nM and 10 nM.
In the same order, the values of `Cc1c([C@@H](O)CN2CCC3(CCCN(C4=CC(=O)OC4)C3)CC2)ccc2c1COC2=O` [Example 24] are 240 nM and 620 nM.
On to `Cc1c([C@@H](O)CN2CCC3(CC2)CCN(C2=C(Cl)C(=O)OC2)C3=O)ccc2c1COC2=O` [Example 25], for which the IC50 against hROMK (hKir1.1) and against Kir1.1 (ROMK1) was 10 nM each time.
Take `CO[C@@H](CN1CCC2(CC1)CCN(C1=CC(=O)OC1)C2=O)c1ccc2c(c1C)COC2=O` [Example 51, 8-[(2R)-2-methoxy-2-(4-methyl-1-oxo-1,3-dihydro-2-benzofuran-5-yl)ethyl]-2-(5-oxo-2,5-dihydrofuran-3-yl)-2,8-diazaspiro[4.5]decan-1-one]: the concentration for half-maximal inhibition (IC50) at hROMK (hKir1.1) was 310 nM; on Kir1.1 (ROMK1), 20 nM.
The matching figures for `COC1CN(C[C@H](O)c2ccc3c(c2C)COC3=O)CCC12CCN(C1=C(C)C(=O)OC1)C2=O` (some centres unmarked) [Example 83]: 40 nM and 50 nM.
